From patent US20210255168A1, “A METHOD OF PRECISION CANCER THERAPY” (KING FAISAL SPECIALIST HOSPITAL & RESEARCH CENTRE, priority 2018, published 2021)

Legend:
Assay type in all cases: cell-based
[1] = system: TTP mRNA in MDA-MB-231 cells; assay: qPCR for TTP mRNA expression; details: MDA-MB-231, 24 h, vs DMSO
Description: (§1) Cells were cultured in six-well plates and either treated with DMSO or drugs for 24 h. Total RNA was then extracted using Trizol reagent (TRI Reagent, Sigma-Aldrich, St Louis, Mo.). The cells were lysed directly on the culture dish by adding 1 ml of the TRI Reagent per 10 cm^2 surface area. Reverse transcription for preparation of cDNA was performed using 3 μg of total RNA, 150 ng random primers, 0.1 M dithiothreitol (DTT), 10 mM deoxynucleotide triphosphate (dNTP) and 200 U of SuperScript II (Invitrogen, Foster City, Calif.). The quantitative RT-QPCR was performed in multiplex in the Chroma 4 DNA Engine cycler (BioRad, Hercules, Calif., USA) using FAM-labelled TaqMan probes (Applied Biosystems, Foster City, Calif., USA) for TTP (ZFP36), HuR (ELAVL1), uPA (PLAU)-CXCR4, MMP-1, MMP-13, IL-8, PLK-1 while a VIC-labelled glyceraldehyde-3-phosphate dehydrogenase (GAPDH) probe was used as the endogenous control. Samples were amplified in triplicate and quantification of relative expression was performed using the estimation of quantitation cycle (Cq) method.
(§2) To study the influence of PLK-1 inhibition on ARE-containing mRNA stability, the effect of volasertib treatment on the half-life of uPA was analyzed. Half-life of uPA mRNA was reduced from >6 hr to 0.5 hr in response to volasertib treatment compared to the DMSO control (FIG. 12C). […]

[2] = system: HuR mRNA in MDA-MB-231 cells; assay: qPCR for HuR mRNA expression; details: MDA-MB-231, 24 h, vs DMSO
Description: as §1, §2

[3] = system: uPA mRNA in MDA-MB-231 cells; assay: mRNA half-life (Actinomycin D, one-phase exponential decay); details: MDA-MB-231, Actinomycin D 5 μg/ml; DMSO control >6 hr
Description: For half-life experiments, 5 μg/ml of Actinomycin D (ActD; Sigma-Aldrich, St Louis, Mo.) was added to the cells for 1, 2, 4 and 6 h prior to extraction of total RNA using Trizol. The reverse transcription reaction and quantitative PCR were performed as described above. The half-life of mRNAs was estimated using the one-phase exponential decay method using GraphPad Prism software (GraphPad Software, San Diego, Calif.).
To study the influence of PLK-1 inhibition on ARE-containing mRNA stability, the effect of volasertib treatment on the half-life of uPA was analyzed. Half-life of uPA mRNA was reduced from >6 hr to 0.5 hr in response to volasertib treatment compared to the DMSO control (FIG. 12C). […] Compatible with the findings of the inventors, the higher the level of PLK-1, the lower the TTP expression.

[4] = system: MDA-MB-231 cells; assay: Invasion assay (RTCA, Matrigel)
Description: (§3) MDA-MB-231 cells were seeded in 6-well cell culture plates and incubated overnight. The cells were treated with the selected protein kinase inhibitors and incubated overnight. Then they were reseeded onto the invasion chamber in serum-free media at a density of 2×10^4 cells per well using 16-well CIM-Plate in Real-Time Cell Analysis (RTCA) Dual Plate (DP) Analyzer (ACEA Bioscinece, California, USA) that was loaded inside the incubator. The lower chambers to which cells will migrate were prepared to contain chemoattractant consisted of 10% FBS. For invasion assays, Matrigel (BioCoat, BD Biosciences, MA) which resembles the complex extracellular environment found in many tissues was prepared and used to coat the upper chamber of CIM plates. Invasion and migration were monitored continuously over 72-hour period using RTCA Software (ACEA Bioscinece, California, USA). The RTCA Instrument automatically monitors the cells every 15 minutes for 100 repetitions. For proliferation assays, the same principle was applied using a single chamber containing complete DMEM media (FIG. 10).
(§4) Based on the dose-response curve, 330 nM was selected to be used as a standard dose for the experiments. In the invasion assay, MDA-MB-231 cells were treated with volasertib or DMSO for 24 hr, then invasion was monitored for 30 hr.

[5] = system: MDA-MB-231 cells; assay: Migration assay (RTCA, without Matrigel); details: MDA-MB-231, thirty hours after treatment
Description: as §3, §4

[6] = system: MDA-MB-231 cells; assay: Proliferation assay (RTCA); details: MDA-MB-231, 300 nM, vs DMSO
Description: as §3, §4

[7] = system: MDA-MB-231, MCF7, and SKBR3 cell lines; assay: mRNA expression in breast cancer cell lines
Description: as §1
PLK1 kinase, as an example of kinases involved in cancer, is over-expressed in breast cancer cell lines, including MCF7, MDA-MB-231 and SKBR3 when compared to the normal-like MCF10A (FIG. 5A). Many kinases are either over-expressed or constitutively active or hyperactive in cancer states when compared to normal cells. As example of inhibitors that are found in the precision cancer therapy screen, Volasertib and Regorafenib (VEGFR kinase inhibitor) led to reduction in the level of ARE-containing mRNA, uPA in most of the cancer cell lines. (FIG. 5B).
The present inventors further disclose that the effect of PLK-1 inhibition is consistent among different types of breast cancer including triple-negative, […], and ER-PR negative breast cancers, as shown through the actions induced by PLK-1 inhibitor volasertib on MDA-MB-231, MCF7, and SKBR3 cell lines, namely increasing the expression of TTP, decreasing the HuR level, and downregulating the TTP target uPA. […] Accordingly, the present inventor discloses that any protein kinase inhibitor which post-transcriptionally regulates expression of cancer-related genes is suitable for precision cancer therapy. Further disclosed is a method of treatment of cancer comprising administering said protein kinase inhibitor, to a patient in need thereof.

[8] = system: MDA-MB-231 cells; assay: RNAseq analysis of global gene expression
Source text: mRNA was extracted from DMSO- or volasertib-treated […]. cDNA libraries were made for sequencing a measure of transcript copy numbers that correspond to the abundance of each gene (FIG. 6A). […] Among those is 170 ARE-coding genes as derived by crossing with AU-rich element database. (FIG. 6B).

[9] = MDA-MB-231, MCF7, and SKBR3 cell lines

Compound: CC[C@@H]1C(=O)N(C)c2cnc(Nc3ccc(C(=O)N[C@H]4CC[C@H](N5CCN(CC6CC6)CC5)CC4)cc3OC)nc2N1C(C)C [volasertib]
- enhancement of TTP mRNA expression [1]: 40%
- reduction of HuR mRNA expression [2]: 60%
- half-life of uPA mRNA [3]: 30 min
- invasive behavior ([4]; MDA-MB-231 treated 24 hr, monitored 30 hr, vs DMSO): reduced invasive behavior
- time at which the effect on invasion started ([4]; after treatment): 6 h
- cell migration [5]: reduce breast cancer cells migration
- proliferation [6]: significantly reduced
- level of ARE-containing mRNA uPA in cancer cell lines ([7]; MCF7, MDA-MB-231 and SKBR3, most of the cancer cell lines): reduction
- HuR level [7, 9]: decreasing
- TTP target uPA [7, 9]: downregulating
- expression of TTP [7, 9]: increasing
- number of ARE-coding genes among the down-regulated genes ([8]; crossed with AU-rich element database): 170 genes
- number of genes down-regulated by at least 1.7-fold ([8]; p<0.001, vs DMSO): 540 genes
